We go through seven compounds from ChEMBL document CHEMBL1201862, “PubChem BioAssay data set” (2004).

Activity calls are given as the source filed them.

In assay [1] the target is T1, Kappa-type opioid receptor (Homo sapiens, UniProt P41145). The format is functional.
Assay [2] deals with ATP-binding cassette sub-family B member 6 (Homo sapiens, UniProt Q9NP58). As to the kind of experiment: ABCB6 transporter inhibitors, porphyrin accumulation, dose response, flow cytometry, K562-ABCB6 cells, cherry pick 02 (AID 624487). Particulars: read-out: EC50_MICROM. The format is functional. A general note: Flow cytometry measures light scatter and fluorescence of single cells or particles in a stream.
Sequence of ATP-binding cassette sub-family B member 6 (Q9NP58 whole entry): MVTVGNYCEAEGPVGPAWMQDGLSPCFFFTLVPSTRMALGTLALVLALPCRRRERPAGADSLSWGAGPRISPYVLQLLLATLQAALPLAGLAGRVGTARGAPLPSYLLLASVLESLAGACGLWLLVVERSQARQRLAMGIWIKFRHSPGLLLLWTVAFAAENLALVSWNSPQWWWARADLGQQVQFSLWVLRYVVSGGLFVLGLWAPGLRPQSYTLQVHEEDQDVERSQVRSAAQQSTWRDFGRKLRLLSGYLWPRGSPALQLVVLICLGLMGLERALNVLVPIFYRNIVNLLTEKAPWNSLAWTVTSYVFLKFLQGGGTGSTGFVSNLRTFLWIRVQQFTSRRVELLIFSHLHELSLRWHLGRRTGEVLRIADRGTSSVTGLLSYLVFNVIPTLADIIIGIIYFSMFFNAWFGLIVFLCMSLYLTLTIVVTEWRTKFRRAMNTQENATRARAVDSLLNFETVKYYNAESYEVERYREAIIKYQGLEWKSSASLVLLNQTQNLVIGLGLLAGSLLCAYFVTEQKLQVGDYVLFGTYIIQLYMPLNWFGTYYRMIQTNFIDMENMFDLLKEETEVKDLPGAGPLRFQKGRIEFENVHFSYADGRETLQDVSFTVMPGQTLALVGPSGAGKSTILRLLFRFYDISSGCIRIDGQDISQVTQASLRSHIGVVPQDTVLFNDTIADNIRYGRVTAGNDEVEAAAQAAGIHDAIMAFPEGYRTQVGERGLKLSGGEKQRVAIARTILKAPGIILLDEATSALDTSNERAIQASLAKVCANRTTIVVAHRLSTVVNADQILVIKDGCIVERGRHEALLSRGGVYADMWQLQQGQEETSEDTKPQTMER

Assay [3] addresses T2, Delta-type opioid receptor (Homo sapiens, UniProt P41143). As to the kind of experiment: HTS Image-Based Screen for Antagonists of the DOR Receptor. [Related pubchem assays (depositor defined):AID1777, AID1785, AID1786, AID2133]. The format is functional.
The target of assay [4] is T3, Replicative DNA helicase DnaB (Mycobacterium tuberculosis, UniProt P9WMR3).
T3 sequence (P9WMR3 whole entry): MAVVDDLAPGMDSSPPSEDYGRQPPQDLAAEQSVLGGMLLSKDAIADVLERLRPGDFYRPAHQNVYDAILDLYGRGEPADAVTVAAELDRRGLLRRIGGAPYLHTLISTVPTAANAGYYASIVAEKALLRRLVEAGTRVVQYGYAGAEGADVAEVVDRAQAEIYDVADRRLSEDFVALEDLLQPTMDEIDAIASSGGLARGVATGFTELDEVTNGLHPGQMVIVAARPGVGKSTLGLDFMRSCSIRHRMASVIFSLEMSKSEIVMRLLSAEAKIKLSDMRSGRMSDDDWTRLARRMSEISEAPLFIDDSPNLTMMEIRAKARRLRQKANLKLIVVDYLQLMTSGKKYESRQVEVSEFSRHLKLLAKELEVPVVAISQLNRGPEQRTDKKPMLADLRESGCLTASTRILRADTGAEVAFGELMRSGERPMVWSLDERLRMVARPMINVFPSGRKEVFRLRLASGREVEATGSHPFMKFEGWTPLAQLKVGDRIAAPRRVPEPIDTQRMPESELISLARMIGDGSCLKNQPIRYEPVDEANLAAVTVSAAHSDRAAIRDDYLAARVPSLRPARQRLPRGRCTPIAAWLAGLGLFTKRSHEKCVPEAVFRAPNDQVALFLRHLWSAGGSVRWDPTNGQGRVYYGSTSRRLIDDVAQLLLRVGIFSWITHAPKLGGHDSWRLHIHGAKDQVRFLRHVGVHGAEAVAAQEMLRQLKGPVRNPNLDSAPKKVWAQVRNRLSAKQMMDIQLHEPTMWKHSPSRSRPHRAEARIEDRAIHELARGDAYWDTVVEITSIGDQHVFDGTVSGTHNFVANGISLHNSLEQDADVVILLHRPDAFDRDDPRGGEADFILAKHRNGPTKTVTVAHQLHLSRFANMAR
The assay is described as follows: DnaB intein splicing inhibitors, dose response, biochemical, cell-free fluorescence (AID 449749). The format is functional.

Assay [5] addresses T1, Kappa-type opioid receptor. The format is functional. The source holds these as a separate data set.
Assay [6] can be described thus: control 3'UTR Renilla luciferase suppression, dose response, counter-screen for Shn3 inhibitor project, cell-based, Clone20-Shn3RL, cherry-picked (AID 624133). The format is functional. For orientation: The purpose of a counterscreen is to sort out artefacts and off-target activity.
The target in assay [7] is Heat shock protein HSP 90-alpha (Homo sapiens, UniProt P07900). The format is functional, organism-based.
Assay [8] has as its target T2, Delta-type opioid receptor. As to the kind of experiment: HTS Image-Based Screen for Agonists of the DOR Receptor. [Related pubchem assays (depositor defined):AID1777, AID1786, AID2133]. The format is functional.
Another assay deals with Beta-galactosidase (Escherichia coli, UniProt Q8VNN2). The format is functional.
Sequence of Beta-galactosidase (Q8VNN2 whole entry): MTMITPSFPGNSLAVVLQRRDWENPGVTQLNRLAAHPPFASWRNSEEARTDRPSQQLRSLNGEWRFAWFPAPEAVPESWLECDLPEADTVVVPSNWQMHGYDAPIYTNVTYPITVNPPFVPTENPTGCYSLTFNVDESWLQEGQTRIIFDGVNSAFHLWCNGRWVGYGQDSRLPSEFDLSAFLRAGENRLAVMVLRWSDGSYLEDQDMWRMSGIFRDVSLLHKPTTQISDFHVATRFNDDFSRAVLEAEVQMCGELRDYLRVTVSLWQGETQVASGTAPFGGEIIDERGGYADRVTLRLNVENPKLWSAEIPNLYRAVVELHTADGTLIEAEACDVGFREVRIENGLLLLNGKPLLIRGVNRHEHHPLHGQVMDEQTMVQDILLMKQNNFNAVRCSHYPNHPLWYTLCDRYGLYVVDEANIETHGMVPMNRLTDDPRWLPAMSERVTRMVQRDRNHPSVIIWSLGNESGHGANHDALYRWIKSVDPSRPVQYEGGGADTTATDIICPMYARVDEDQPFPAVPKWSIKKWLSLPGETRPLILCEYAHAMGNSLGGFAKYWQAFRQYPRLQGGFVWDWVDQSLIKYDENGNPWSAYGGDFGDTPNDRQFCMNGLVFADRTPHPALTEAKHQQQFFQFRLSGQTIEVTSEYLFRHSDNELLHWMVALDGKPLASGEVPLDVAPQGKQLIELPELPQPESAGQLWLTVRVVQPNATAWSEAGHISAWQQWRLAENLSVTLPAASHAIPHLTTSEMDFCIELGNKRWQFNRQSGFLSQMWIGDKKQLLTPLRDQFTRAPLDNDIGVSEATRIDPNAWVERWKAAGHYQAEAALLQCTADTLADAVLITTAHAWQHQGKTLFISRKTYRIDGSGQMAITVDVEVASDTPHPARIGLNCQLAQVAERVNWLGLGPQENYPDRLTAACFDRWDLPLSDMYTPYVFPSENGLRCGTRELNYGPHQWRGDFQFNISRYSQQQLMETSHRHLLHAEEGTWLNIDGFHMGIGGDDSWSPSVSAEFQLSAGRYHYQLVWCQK
For a further assay, the target named is T4, Protein RecA (Mycobacterium tuberculosis, UniProt P9WHJ3).
T4 sequence (P9WHJ3 whole entry): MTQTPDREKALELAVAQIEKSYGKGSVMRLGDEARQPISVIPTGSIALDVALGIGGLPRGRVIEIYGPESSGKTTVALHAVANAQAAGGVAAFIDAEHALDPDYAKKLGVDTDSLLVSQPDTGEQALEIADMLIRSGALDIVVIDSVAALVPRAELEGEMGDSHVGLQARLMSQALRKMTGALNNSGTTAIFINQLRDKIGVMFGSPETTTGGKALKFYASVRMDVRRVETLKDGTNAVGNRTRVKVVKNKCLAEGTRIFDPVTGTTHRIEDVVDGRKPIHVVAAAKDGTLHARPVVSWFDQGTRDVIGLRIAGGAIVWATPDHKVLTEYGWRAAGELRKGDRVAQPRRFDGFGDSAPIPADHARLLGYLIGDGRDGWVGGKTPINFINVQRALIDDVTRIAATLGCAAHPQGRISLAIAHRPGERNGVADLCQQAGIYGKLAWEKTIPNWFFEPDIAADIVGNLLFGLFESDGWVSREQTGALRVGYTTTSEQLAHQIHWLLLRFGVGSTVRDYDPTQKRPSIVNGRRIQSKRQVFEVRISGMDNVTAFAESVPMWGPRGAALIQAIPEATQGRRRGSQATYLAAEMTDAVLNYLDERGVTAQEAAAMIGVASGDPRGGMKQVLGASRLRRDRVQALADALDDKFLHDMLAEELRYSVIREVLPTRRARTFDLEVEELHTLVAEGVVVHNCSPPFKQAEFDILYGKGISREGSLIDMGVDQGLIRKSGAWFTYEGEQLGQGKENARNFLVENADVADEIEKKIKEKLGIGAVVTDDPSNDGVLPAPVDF
As to the kind of experiment: Fluorescence Cell-Free Homogeneous Dose Retest to Identify Inhibitors of RecA-Intein Splicing Activity. [Related pubchem assays (depositor defined):AID2097, AID2223, AID489010, AID492950]. The format is functional.

The nature of assay [9]: Shn3 3'UTR reporter inhibitors, dose response, cell-based, Clone20 osteoblasts, firefly luciferase, cherry-picked (AID 624132).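 Further: firefly luciferase luminescence from reporter carrying the Shn3 3'UTR in osteoblasts.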 The format is functional.
The target of the next assay is Beta Lactamase (Pseudomonas aeruginosa, UniProt Q932Y6). As to the kind of experiment: beta-lactamase reporter inhibitor potency, dose response, artefact control for TLR9-MyD88 binding inhibitor project, BLA reporter cells, FRET fluorescence (AID 588341).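 Further: cell based assay in CHO-K1 cells stably expressing beta-lactamase.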 The format is cell-based.
Sequence of Beta Lactamase (Q932Y6 whole entry): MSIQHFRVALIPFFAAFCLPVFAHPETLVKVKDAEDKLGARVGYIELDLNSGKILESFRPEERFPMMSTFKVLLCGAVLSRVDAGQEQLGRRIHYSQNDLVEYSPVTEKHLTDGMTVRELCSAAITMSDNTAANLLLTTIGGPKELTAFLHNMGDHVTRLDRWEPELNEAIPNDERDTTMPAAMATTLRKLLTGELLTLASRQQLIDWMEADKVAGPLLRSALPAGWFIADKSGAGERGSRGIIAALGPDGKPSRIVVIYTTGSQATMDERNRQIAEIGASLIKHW
Another assay concerns the target Mu-type opioid receptor (Homo sapiens, UniProt P35372). As to the kind of experiment: HTS Image-Based Screen for Agonists of the MOR Receptor. [Related pubchem assays (depositor defined):AID1777, AID1785, AID1786, AID2133]. The format is functional.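 Further: imaging of beta-arrestin GFP recruitment into spots after receptor activation.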
The subject of a further assay is CHO. The assay is described as follows: cytotoxicity in TLR9-MyD88 CHO cells, dose response, cytotoxicity control for TLR9-MyD88 binding inhibitor project, cell-based, luminescence (AID 588339).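 Further: CHO cells stably coexpressing TLR9 and MyD88 fusions from primary screen; compound exposure lasted 48 hours before viability readout.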 The format is functional, hamster. Particulars: Cricetulus griseus.
Assay [10] in a line: HepG2 cell cytotoxicity, dose response, cytotoxicity control for Shn3 inhibitor project, CellTiter-Glo, cherry-picked (AID 624134). The format is functional, cell-based. For orientation: ATP-based viability assays read luminescence as a measure of living cells.
Assay [11] has as its target Long-chain-fatty-acid--AMP ligase FadD28 (Mycobacterium tuberculosis, UniProt P9WQ59). As to the kind of experiment: Fluorescence polarization aasay to screen for inhibitors that compete for the binding of FadD28 to a bisubstrate Measured in Biochemical System Using Plate Reader - 2147-01_Inhibitor_Dose_CherryPick_Activity. The format is functional, Mycobacterium tuberculosis H37Rv.

Assay [12] is described as follows: HepG2 cell cytotoxicity, dose response, cytotoxicity control, ATP luminescence, cherry-pick, activator set 2 (AID 1053143). The format is functional, cell-based.
Assay [13] deals with Beta-lactamase (Salmonella choleraesuis (strain SC-B67), UniProt Q5J463). As to the kind of experiment: Epi-absorbance-based counterscreen for selective VIM-2 inhibitors: dose response biochemical high throughput screening assay to identify inhibitors of TEM-1 serine-beta-lactamase.
Sequence of Beta-lactamase (Salmonella choleraesuis (strain SC-B67), UniProt Q5J463) (Q5J463 whole entry): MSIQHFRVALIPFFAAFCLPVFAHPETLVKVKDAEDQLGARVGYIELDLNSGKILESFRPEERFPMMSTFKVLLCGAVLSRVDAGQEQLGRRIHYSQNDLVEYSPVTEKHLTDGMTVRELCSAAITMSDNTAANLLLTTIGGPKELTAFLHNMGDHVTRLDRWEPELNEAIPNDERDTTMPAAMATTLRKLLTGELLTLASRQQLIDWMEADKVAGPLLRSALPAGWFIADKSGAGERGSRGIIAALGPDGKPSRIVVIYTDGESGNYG
In assay [14] the target is T5, Beta-lactamase (Pseudomonas aeruginosa, UniProt Q79MP6). The assay is described as follows: IMP-1 metallo-beta-lactamase inhibitors, dose response, selectivity assay for VIM-2 inhibitor project, biochemical, epi-absorbance (AID 1920).
T5 sequence (Q79MP6 whole entry): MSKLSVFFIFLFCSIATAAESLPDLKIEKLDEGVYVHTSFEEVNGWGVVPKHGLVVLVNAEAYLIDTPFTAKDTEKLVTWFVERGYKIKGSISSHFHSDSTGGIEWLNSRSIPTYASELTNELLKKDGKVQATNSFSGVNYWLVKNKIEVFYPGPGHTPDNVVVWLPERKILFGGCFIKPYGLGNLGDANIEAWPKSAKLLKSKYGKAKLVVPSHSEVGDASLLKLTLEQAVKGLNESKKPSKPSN
Assay [15] addresses T5, Beta-lactamase. As to the kind of experiment: […] counterscreen for selective VIM-2 inhibitors: dose response biochemical high throughput screening assay to identify inhibitors of IMP-1 metallo-beta-lactamase.
The target in assay [16] is T6, Sentrin-specific protease 8 (Homo sapiens, UniProt Q96LD8).
T6 sequence (Q96LD8 whole entry): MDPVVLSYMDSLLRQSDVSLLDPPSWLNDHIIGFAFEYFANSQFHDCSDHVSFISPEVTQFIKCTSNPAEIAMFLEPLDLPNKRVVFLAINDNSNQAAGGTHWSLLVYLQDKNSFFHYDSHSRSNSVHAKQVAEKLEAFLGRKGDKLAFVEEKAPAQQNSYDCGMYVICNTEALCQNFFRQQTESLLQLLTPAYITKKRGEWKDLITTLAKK
The format is functional.

Assay [17] is described as follows: inhibitors of intracellular T. cruzi replication, confirmation, NIH3T3 host cells, beta-gal luminescence (AID 2044).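 Further: intracellular parasites grown in NIH/3T3 mouse fibroblasts as host cells; luminescent beta-galactosidase reporter signal from transgenic T. cruzi replicating inside host cells; inhibitors lower the luminescence signal.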 The format is functional, cell-based.
Assay [18] addresses T6, Sentrin-specific protease 8. The format is functional. This is another data set of the same source.
Assay [19] is described as follows: cytotoxicity toward NIH3T3 fibroblasts, dose response, counter-screen, cell-based, ATP luminescence, mouse fibroblasts (AID 2010).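 Further: cells exposed to compound for about 90 hours before reading.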 The format is functional.
A short description of a further assay: cells. The format is functional.
The target in another assay is T7, Caspase-3 (Homo sapiens, UniProt P42574).
T7 sequence (P42574 whole entry): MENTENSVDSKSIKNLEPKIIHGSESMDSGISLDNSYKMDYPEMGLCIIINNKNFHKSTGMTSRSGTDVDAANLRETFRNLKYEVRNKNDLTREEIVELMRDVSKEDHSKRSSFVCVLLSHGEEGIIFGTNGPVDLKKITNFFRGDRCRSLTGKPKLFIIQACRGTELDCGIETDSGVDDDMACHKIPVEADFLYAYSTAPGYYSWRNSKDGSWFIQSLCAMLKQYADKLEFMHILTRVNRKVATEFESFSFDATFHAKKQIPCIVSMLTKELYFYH
The assay is described as follows: Dose-response confirmation of uHTS inhibitor hits of Sentrin-Specific Protease 8 in a Caspase-3 Fluorescence assay. The format is functional.

In assay [20] the target is Beta-2 adrenergic receptor (Homo sapiens, UniProt P07550). The assay is described as follows: Dose response for HTS for Beta-2AR agonists via FAP method from Powderset3. The format is functional.
Sequence of Beta-2 adrenergic receptor (P07550 whole entry): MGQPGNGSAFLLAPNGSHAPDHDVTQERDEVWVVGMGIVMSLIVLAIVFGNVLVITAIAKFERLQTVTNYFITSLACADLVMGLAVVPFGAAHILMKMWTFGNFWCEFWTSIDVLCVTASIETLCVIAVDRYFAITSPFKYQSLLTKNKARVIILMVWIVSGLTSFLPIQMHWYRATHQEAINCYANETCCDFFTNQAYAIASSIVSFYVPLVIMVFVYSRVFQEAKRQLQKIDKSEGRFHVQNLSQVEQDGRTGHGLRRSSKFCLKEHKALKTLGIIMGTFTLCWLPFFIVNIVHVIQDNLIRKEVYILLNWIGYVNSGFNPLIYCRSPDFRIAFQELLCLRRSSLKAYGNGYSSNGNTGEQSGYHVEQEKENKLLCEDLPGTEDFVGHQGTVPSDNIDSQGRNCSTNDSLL
The nature of assay [21]: ADAM10 protease inhibitors, dose response, selectivity assay for ADAM17 exosite inhibitor project, biochemical, FRET peptide substrate, recombinant human ADAM10 (AID 743259).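 Further: ADAM10 enzyme cleaving a FRET peptide substrate.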
Assay [22] addresses Disintegrin and metalloproteinase domain-containing protein 17 (Homo sapiens, UniProt P78536). The assay is described as follows: exosite inhibitors of ADAM17, dose response, biochemical (AID 743260).

T1 sequence (P41145 whole entry): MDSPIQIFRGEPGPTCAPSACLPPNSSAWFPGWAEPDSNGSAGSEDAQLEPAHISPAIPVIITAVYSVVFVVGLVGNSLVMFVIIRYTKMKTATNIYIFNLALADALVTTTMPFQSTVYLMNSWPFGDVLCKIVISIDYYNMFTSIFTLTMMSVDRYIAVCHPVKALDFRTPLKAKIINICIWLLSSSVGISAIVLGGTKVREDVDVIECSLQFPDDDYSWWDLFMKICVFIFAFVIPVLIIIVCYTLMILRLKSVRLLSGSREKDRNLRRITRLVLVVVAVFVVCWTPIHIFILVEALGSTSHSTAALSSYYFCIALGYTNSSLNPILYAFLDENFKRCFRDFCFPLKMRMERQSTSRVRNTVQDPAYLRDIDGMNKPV
T2 sequence (P41143 whole entry): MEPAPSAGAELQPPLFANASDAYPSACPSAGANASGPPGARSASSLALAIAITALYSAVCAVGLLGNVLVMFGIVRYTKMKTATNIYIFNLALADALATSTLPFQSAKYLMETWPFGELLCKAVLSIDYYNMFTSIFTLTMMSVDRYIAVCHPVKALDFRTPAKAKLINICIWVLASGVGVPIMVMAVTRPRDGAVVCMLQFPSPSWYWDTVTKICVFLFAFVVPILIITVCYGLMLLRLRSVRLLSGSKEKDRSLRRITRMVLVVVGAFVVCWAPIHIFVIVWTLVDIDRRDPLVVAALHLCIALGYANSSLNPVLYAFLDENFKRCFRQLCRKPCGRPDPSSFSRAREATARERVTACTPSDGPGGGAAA
Sequence of Long-chain-fatty-acid--AMP ligase FadD28 (P9WQ59 whole entry): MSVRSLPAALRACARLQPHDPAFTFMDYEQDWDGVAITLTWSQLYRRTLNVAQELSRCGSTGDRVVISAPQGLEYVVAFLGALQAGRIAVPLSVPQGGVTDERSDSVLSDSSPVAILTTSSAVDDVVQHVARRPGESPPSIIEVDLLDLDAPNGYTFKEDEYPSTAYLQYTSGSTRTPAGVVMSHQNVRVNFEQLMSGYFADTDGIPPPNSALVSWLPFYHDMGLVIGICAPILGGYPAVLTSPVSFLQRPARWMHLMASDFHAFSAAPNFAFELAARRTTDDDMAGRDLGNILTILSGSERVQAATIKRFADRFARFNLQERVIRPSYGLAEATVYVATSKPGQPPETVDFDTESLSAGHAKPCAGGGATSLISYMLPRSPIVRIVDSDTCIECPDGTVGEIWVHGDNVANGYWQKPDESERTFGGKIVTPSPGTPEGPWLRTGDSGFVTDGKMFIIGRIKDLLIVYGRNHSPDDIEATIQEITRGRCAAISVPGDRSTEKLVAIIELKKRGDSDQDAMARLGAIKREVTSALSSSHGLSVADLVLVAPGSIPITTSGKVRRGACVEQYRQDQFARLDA
Sequence of Mu-type opioid receptor (P35372 whole entry, the tested form may be a part): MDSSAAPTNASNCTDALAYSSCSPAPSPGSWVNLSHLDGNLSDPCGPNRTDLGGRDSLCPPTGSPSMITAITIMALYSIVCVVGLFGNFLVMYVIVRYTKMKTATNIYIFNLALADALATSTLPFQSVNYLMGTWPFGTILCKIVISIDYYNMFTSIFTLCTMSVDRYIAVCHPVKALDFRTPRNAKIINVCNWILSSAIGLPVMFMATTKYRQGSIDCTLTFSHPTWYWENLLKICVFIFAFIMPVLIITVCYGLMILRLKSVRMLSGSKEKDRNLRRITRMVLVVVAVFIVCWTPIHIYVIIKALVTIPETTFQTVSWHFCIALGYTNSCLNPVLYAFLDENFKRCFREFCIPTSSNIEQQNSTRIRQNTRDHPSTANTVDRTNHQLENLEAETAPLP

A word on the IC50: it is the concentration at which inhibition is half-maximal. The term AC50 denotes the concentration giving half of the maximal activity seen. For the compound `CCc1ccc(NC(=O)c2nc(S(=O)(=O)Cc3ccccc3)ncc2Cl)cc1`, the IC50 in assay [1] was 13.7 µM (active); in assay [3], 11.9 µM (inactive); in [5] it was 7.28 µM; on Beta Lactamase, 12.1 µM (inactive); with CHO, 2.91 µM (active). The EC50 is 23.9 µM (active) in assay [2]; > 32 µM (inactive) in assay [8]; > 31.5 µM (inactive) on Beta-galactosidase; 1.82 µM (active) at Protein RecA; > 32 µM (inactive) at Mu-type opioid receptor. Besides, the AC50 was 2.28 µM (active) in assay [4]; 8.1 µM (active) in [6]; 1.74 µM (active) in assay [7]; 0.551 µM (active) in [9]; 24.4 µM (active) in [10].
As for `COc1cc([N+](=O)[O-])ccc1N=C(S)NNC(=O)c1ccc2c(c1)OCO2`, the AC50 in assay [11] is > 100 µM (inactive).
In the case of `COc1cccc(NC(=O)c2ccc3c(c2)N(C)CCS3)c1`, the AC50 in assay [12] was 26 µM (active).
Consider `S=c1[nH]nc(C2CC2)n1Cc1ccccc1`, for which the IC50 on Beta-lactamase [13], at Beta-lactamase [14] and on Beta-lactamase [15] was > 59.6 µM (inactive) in each case.
Turning to `CC(=O)N1N=C(c2ccccc2)OC1c1ccc([N+](=O)[O-])s1` (configuration not stated), the AC50 in [6] was 14.3 µM (active); in [7], 8.37 µM (active); in assay [10], 39.3 µM (active). Further, the IC50 is 6.39 µM (active) in assay [16], 6.49 µM (active) in assay [18], 43.3 µM (active) in the assay “cells” and 48.3 µM (active) at Caspase-3. Also, the EC50 in assay [17] was 1.79 µM (active); in assay [19] it was 10.8 µM (active).
On to `COCc1ccc(CN2CCCC(C(=O)Nc3ccc(-c4cccc(OC)c4)cc3)C2)o1` (configuration not stated), for which, in assay [20], the EC50 is 607 µM (inactive).
On to `COc1ccc(C(c2nnnn2Cc2ccccc2)N2CCN(C/C=C/c3ccccc3)CC2)cc1` (configuration not stated), for which the IC50 in [21] and in assay [22] was > 69.5 µM (inactive) each time.
